Source: article PMC8221158, “Novel pyrrolizines bearing 3,4,5-trimethoxyphenyl moiety: design, synthesis, molecular docking, and biological evaluation as potential multi-target cytotoxic agents” (Journal of Enzyme Inhibition and Medicinal Chemistry, 2021)
Where two headings read alike, the source gives them in different places.

Legend:
[1] = system: A2780; assay: MTT cell proliferation assay; format: cell-based, human; settings: for IC50: Homo sapiens, A2780, MTT, 72 h treatment, n = 3, read-out: IC50 (µM ± SD) A2780; for Selectivity index A2780: IC50 MRC-5 / IC50 A2780
Procedure: (§1) MCF-7 (human breast adenocarcinoma), A2780 (human ovarian cancer) and HCT116 (human colorectal carcinoma), and MRC-5 (normal foetal lung fibroblast) cell lines were bought from the ATCC and were cultured in flasks which were incubated at 37 °C in an atmosphere of 5% CO2, 95% air, and 100% relative humidity, to maintain continuous logarithmic growth. MCF-7, A2780, and HCT116 were maintained in RPMI-1640 media (100 U/mL penicillin, 100 µg/mL streptomycin, and 10% foetal bovine serum, Gibco, Carlsbad, CA). MRC-5 cells were maintained in EMEM (100 U/mL penicillin, 100 µg/mL streptomycin, and 10% foetal bovine serum, Gibco, Carlsbad, CA). Doxorubicin (5 μg/mL, for three months) added for RPMI-1640 media containing MCF7 cells was used to develop doxorubicin-resistant MCF7/ADR cells. All cancer and normal cell lines were cultured according to our previous report. Cells were used within 10–20 passages and were checked for mycoplasma every 6 months, by measuring the bioluminescence (Myco Alert sample detection kit; Lonza, Basel, Switzerland) using the multiplate reader (Synergy HT, BioTek, Winooski, VT).
(§2) The MTT assay was used to measure the cytotoxicity and growth inhibitory activities and cytotoxicity of the new compounds according to our previous report[13]^,[17]. Cells from flasks of 70–80% confluency were separately seeded in 96-well flat-bottom microculture plates (Nalgene-Nunc, Thermo Fisher Scientific, Roskilde, Denmark) at a density of 3 × 10^3 cells (MCF-7, A2780, and MRC-5), 1 × 10^4 cells (HCT116), to a volume of 180 μL/well of culture medium. A Neubauer haemocytometer was used for cell counting. Cells were incubated at 37 °C overnight to allow attachment to the wells. The final concentrations of each compound in wells were: 0–50 μM in 200 μL of media (DMSO 0.1%). Lapatinib (Cayman, Ann Arbor, MI) was used as a positive control at the same final concentrations. Medium only (20 μL) was added to each control well, and each concentration was tested in triplicates (n = 3). Following incubation for 72 h, 50 μL MTT was added into each well. Plates were incubated for 3 h, the supernatant was aspirated, and 100 μL of DMSO was added to each well. The optical density (OD) of the purple formazan is proportional to the number of viable cells. […] GraphPad Prism version 5.00 for Windows was used for analysis (La Jolla, CA). Cytotoxicity of the new compounds was calculated after treatment of cancer/normal cell lines for 72 h. The absorbance of the reduced MTT was determined using a microplate reader A570 nm.
(§3) The cytotoxic activity of the new compounds (15a–e, 16a–e, 20, and 21) was evaluated in vitro using MTT assay. The MTT assay depends on the reduction of the yellow tetrazole dye (MTT) to the purple formazan by the active mitochondrial dehydrogenase enzymes indicating the viability of the cells which can be measured as OD. The new compounds were evaluated against three non-resistant cancer cell lines: MCF-7, and A2780 cell lines were selected to compare cytotoxicity of the new compounds with the previously reported results of compounds 9a,b[13]. Cytotoxicity of the new compounds was also evaluated also against HCT116 cells which lacks COX-2 protein[33]^,[34].

[2] = system: HCT116; assay: MTT cell proliferation assay; format: cell-based, human; settings: for IC50: Homo sapiens, HCT-116, MTT, 72 h treatment, n = 3, read-out: IC50 (µM ± SD) HCT116; for Selectivity index HCT116: IC50 MRC-5 / IC50 HCT116
Procedure: as §1, §2, §3

[3] = system: MCF-7; assay: MTT cell proliferation assay; format: cell-based, human; settings: for IC50: Homo sapiens, MCF7, MTT, 72 h treatment, n = 3, read-out: IC50 (µM ± SD) MCF-7; for Selectivity index MCF-7: IC50 MRC-5 / IC50 MCF-7
Procedure: as §1, §2, §3

[4] = system: MCF-7, HCT116, and A2780 cancer cell lines; assay: MTT assay, three cancer cell lines taken together (average, overall range); format: cell-based, human; settings: for IC50: Homo sapiens
Procedure: Cells from flasks of 70–80% confluency were separately seeded in 96-well flat-bottom microculture plates (Nalgene-Nunc, Thermo Fisher Scientific, Roskilde, Denmark) at a density of 3 × 10^3 cells (MCF-7, A2780, and MRC-5), 1 × 10^4 cells (HCT116), to a volume of 180 μL/well of culture medium. […] The final concentrations of each compound in wells were: 0–50 μM in 200 μL of media (DMSO 0.1%). Lapatinib (Cayman, Ann Arbor, MI) was used as a positive control at the same final concentrations. Medium only (20 μL) was added to each control well, and each concentration was tested in triplicates (n = 3). Following incubation for 72 h, 50 μL MTT was added into each well. Plates were incubated for 3 h, the supernatant was aspirated, and 100 μL of DMSO was added to each well. The optical density (OD) of the purple formazan is proportional to the number of viable cells. […] The absorbance of the reduced MTT was determined using a microplate reader A570 nm.

[5] = system: normal MRC-5 cells; assay: MTT assay, normal cells (cytotoxic selectivity); format: cell-based; settings: Homo sapiens, MRC5, 72 h treatment, n = 3, read-out: IC50 (µM ± SD) MRC-5
Procedure: as §1, §2
Selectivity towards cancerous cells is one of the important issues which must be considered during the discovery and development of new anticancer agents. To assess the toxicity and selectivity of the new compounds (15a–e, 16a–e, 20, and 21), their growth inhibitory activities against normal human foetal lung fibroblast MRC-5 cells were evaluated using the MTT assay. […] The selectivity of the new compounds towards each of the three cancer cell lines was calculated by dividing their IC50 values against normal MRC-5 cells by their IC50 values against the corresponding cancer cell line (Table 3).

[6] = target: T1, porcine tubulin (Sus scrofa, UniProt P02550+P02554); assay: Tubulin polymerisation fluorescence-based assay; format: biochemical; settings: 0.5 μM, positive control (inhibitor)
T1 construct: purchased Cytoskeleton Inc., Denver, CO BK011P
T1 sequence (P02550 whole entry): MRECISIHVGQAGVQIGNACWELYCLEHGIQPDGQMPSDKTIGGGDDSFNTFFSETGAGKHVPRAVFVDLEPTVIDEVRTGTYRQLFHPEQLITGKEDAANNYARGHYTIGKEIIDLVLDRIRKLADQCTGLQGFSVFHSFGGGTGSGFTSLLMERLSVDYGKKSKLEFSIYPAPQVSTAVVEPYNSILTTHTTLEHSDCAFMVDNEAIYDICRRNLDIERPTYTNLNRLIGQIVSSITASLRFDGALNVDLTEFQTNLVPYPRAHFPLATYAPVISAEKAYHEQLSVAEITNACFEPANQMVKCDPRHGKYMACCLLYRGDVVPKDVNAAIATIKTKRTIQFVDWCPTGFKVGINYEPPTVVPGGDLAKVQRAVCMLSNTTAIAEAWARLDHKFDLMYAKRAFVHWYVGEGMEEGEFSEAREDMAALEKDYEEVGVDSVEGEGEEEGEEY
T1 sequence (P02554 whole entry): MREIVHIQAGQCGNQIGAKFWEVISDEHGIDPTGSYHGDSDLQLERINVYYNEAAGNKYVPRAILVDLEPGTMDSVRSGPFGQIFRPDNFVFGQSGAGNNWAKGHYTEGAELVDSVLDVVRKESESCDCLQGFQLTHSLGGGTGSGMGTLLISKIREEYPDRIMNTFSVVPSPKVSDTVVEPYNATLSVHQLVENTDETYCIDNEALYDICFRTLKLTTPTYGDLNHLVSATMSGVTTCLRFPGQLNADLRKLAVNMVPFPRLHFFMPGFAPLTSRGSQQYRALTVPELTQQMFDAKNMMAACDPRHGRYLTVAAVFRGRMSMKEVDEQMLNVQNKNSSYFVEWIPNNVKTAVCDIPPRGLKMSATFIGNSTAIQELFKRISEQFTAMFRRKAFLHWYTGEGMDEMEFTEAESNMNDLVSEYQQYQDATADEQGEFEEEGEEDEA
Procedure: The effect of compounds 16a,b,d on tubulin polymerisation was measured in vitro using tubulin polymerisation fluorescence-based assay (cytoskeleton, cat. BK011P, https://www.cytoskeleton.com/bk011p). The assay was performed following the previous report[22] and according to the manufacturer’s instructions. Briefly, 2 mg/mL porcine tubulin was dissolved in buffer 1 (80 mM PIPES, 2 mM MgCl2, 0.5 mM EGTA pH 6.9, 10 µM fluorescent reporter, 1 mM GTP, 15% glycerol) to a final concentration of […]. Then tubulin solution was transferred to a pre-warmed 96-well plate that contained the test compounds 16a,b,d (5 μM), paclitaxel (3 μM), CaCl2 (0.5 μM), and control buffer. The polymerisation of tubulin was monitored as fluorescence at 37 °C for 60 min. Relative fluorescence units (RFU) were determined at 360 nm for excitation and at 460 nm for emission using the Varioskan Flash spectral scanning multimode reader (Thermo Fisher Scientific, Roskilde, Denmark) at a reading speed of 1 cycle/min.
In the current study, the new compounds were designed bearing the trimethoxy phenyl moiety aiming to obtain new cytotoxic agents that can interfere with tubulin polymerisation in cancer cells. […] In this assay, light scattering by microtubules which is directly proportional to the concentration of the microtubule polymer was used as a measure of tubulin polymerisation. The study was performed using a fluorescence-based tubulin polymerisation assay kit (Cytoskeleton Inc., Denver, CO; Cat # BK011P) following the manufacturer’s instructions (https://www.cytoskeleton.com/bk011p) and according to the previous report.
Paclitaxel (3 μM) was used as a tubulin polymerisation enhancer (positive control, enhancer), while calcium chloride (CaCl2, 0.5 μM) was used as a positive control (inhibitor) as per the manufacturer’s instructions (https://www.cytoskeleton.com/pdf-storage/datasheets/bk011p.pdf). The vehicle was also used to evaluate the polymerisation when tubulin is incubated in the absence of the test compound. The effect of the selected compounds (5 μM) on tubulin polymerisation was evaluated and compared with those of the positive control. The results are represented in Figure 8.

[7] = MCF-7, HCT116, A2780, read-out: Average of the three IC50 values against the three cancer cell lines

IC50 [1] | IC50 [2] | IC50 [3] | IC50 [4, 7] | melting point | IC50 ([4]; MTT, 72 h, range over MCF-7, HCT116, A2780, read-out: IC50 against the three cancer cell lines) | Compound | Selectivity index A2780 [1] | Selectivity index HCT116 [2] | Selectivity index MCF-7 [3] | IC50 [5] | effect on tubulin polymerisation [6] | fold increase in cytotoxicity against the three cancer cell lines ([4]; relative to compound 15a (ring expansion))
25.8 ± 4.99 µM | 0.353 ± 0.088 µM | 36.9 ± 4.4 µM | 21000 nM | 242 to 244 °C |  | COc1cc(C=Nc2c(C#N)c3n(c2C(=O)Nc2ccccc2)CCC3)cc(OC)c1OC [15a, 7-Cyano-N-phenyl-6-((3,4,5-trimethoxybenzylidene)amino)-2,3-dihydro-1H-pyrrolizine-5-carboxamide] | 0.07 | 4.92 | 0.05 | 1.74 ± 0.149 µM |  | 
33.4 ± 3.73 µM | 19.8 ± 7.76 µM | 35.9 ± 4.44 µM | 29700 nM | 251 to 253 °C |  | COc1cc(C=Nc2c(C#N)c3n(c2C(=O)Nc2ccc(C)cc2)CCC3)cc(OC)c1OC [15b, 7-Cyano-N-(p-tolyl)-6-((3,4,5-trimethoxybenzylidene)amino) -2,3-dihydro-1H-pyrrolizine-5-carboxamide] | 0.10 | 0.17 | 0.09 | 3.33 ± 1 µM |  | 
0.041 ± 0.008 µM | 0.096 ± 0.015 µM | 0.616 ± 0.01 µM | 251 nM | 263 to 265 °C |  | COc1ccc(NC(=O)c2c(N=Cc3cc(OC)c(OC)c(OC)c3)c(C#N)c3n2CCC3)cc1 [15c, 7-Cyano-N-(4-methoxyphenyl)-6-((3,4,5-trimethoxybenzylidene)amino)-2,3-dihydro-1H-pyrrolizine-5-carboxamide] | 48.27 | 20.47 | 3.21 | 1.98 ± 0.561 µM |  | 
0.07 ± 0.002 µM | 0.534 ± 0.204 µM | 21.8 ± 3.18 µM | 7450 nM | 271 to 273 °C |  | COc1cc(C=Nc2c(C#N)c3n(c2C(=O)Nc2ccc(Cl)cc2)CCC3)cc(OC)c1OC [15d, N-(4-Chlorophenyl)-7-cyano-6-((3,4,5-trimethoxybenzylidene)amino)-2,3-dihydro-1H-pyrrolizine-5-carboxamide] | 29.61 | 3.88 | 0.10 | 2.07 ± 0.054 µM |  | 
0.311 ± 0.041 µM | 0.144 ± 0.049 µM | 0.187 ± 0.098 µM | 214 nM | 277 to 280 °C |  | COc1cc(C=Nc2c(C#N)c3n(c2C(=O)Nc2ccc(Br)cc2)CCC3)cc(OC)c1OC [15e, N-(4-Bromophenyl)-7-cyano-6-((3,4,5-trimethoxybenzylidene)amino)-2,3-dihydro-1H-pyrrolizine-5-carboxamide] | 54.92 | 118.61 | 91.24 | 17.1 ± 0.552 µM |  | 
0.144 ± 0.012 µM | 0.032 ± 0.014 µM | 1.47 ± 0.452 µM | 549 nM | 259 to 261 °C |  | COc1ccc(NC(=O)c2c(NC(=O)c3cc(OC)c(OC)c(OC)c3)c(C#N)c3n2CCC3)cc1 [16c, 7-Cyano-N-(4-methoxyphenyl)-6-(3,4,5-trimethoxybenzamido)-2,3-dihydro-1H-pyrrolizine-5-carboxamide] | 4.62 | 20.78 | 0.45 | 0.665 ± 0.191 µM |  | 
0.914 ± 0.092 µM | 0.173 ± 0.039 µM | 0.361 ± 0.039 µM | 483 nM | 286 to 288 °C |  | COc1cc(C(=O)Nc2c(C#N)c3n(c2C(=O)Nc2ccc(Br)cc2)CCC3)cc(OC)c1OC [16e, N-(4-Bromophenyl)-7-cyano-6-(3,4,5-trimethoxybenzamido) -2,3-dihydro-1H-pyrrolizine-5-carboxamide] | 5.75 | 30.40 | 14.57 | 5.26 ± 1.4 µM |  | 
 |  |  |  |  |  | [Ca+2].[Cl-].[Cl-] [CaCl2, calcium chloride, reference compound] |  |  |  |  | inhibited tubulin polymerisation and reduced the final polymer mass | 
9.72 ± 0.845 µM | 10 ± 1.13 µM | 6.69 ± 1.09 µM | 8830 nM |  | 6690 to 10000 nM | CS(=O)(=O)CCNCc1ccc(-c2ccc3ncnc(Nc4ccc(OCc5cccc(F)c5)c(Cl)c4)c3c2)o1 [Lapatinib, reference compound] | 1.40 | 1.36 | 2.04 | 13.7 ± 2.9 µM |  | 
0.938 ± 0.116 µM | 0.247 ± 0.069 µM | 5.72 ± 0.185 µM | 2300 nM | 247 to 249 °C |  | COc1cc(C=Nc2c(C#N)c3n(c2C(=O)Nc2ccccc2)CCCC3)cc(OC)c1OC [compound 20, 1-Cyano-N-phenyl-2-((3,4,5-trimethoxybenzylidene)amino)-5,6,7,8-tetrahydroindolizine-3-carboxamide] | 1.62 | 6.14 | 0.27 | 1.52 ± 0.103 µM |  | 1.4–27.5 fold
0.598 ± 0.039 µM | 0.176 ± 0.017 µM | 0.6 ± 0.054 µM | 458 nM |  |  | COc1cc(C(=O)Nc2c(C#N)c3n(c2C(=O)Nc2ccccc2)CCCC3)cc(OC)c1OC [compound 21, 1-Cyano-N-phenyl-2-(3,4,5-trimethoxybenzamido)-5,6,7,8-tetrahydroindolizine-3-carboxamide] |  |  |  | 0.584 ± 0.094 µM |  | 
